According to the supplement of paper PMC10883282:
Where a name gives a salt, the structure may show the parent alone. ± gives the standard deviation of the averaged measurements.

Test system: SW872
Assay: relative viability vs DMSO control (72 h) (fraction); higher = more viable cells
How it was run: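 Densities for seeding sarcoma cell lines into 384-well plates were set to give 80–90% confluence. After 24 h, 2.5 µl of serially diluted compound from source plates of 10 mM to 0.0002 mM went in, and plates stayed 72 h at 37 °C in 5% CO2 with 0.1% DMSO vehicle and a 5 µM positive control. Percent growth from ATPLite readings, averaged over up to triplicate wells, served as relative viability, rescaled so 1 means full and 0 means none.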

Compound	relative viability (0.00017 µM)	relative viability (0.00051 µM)	relative viability (0.00152 µM)	relative viability (0.00457 µM)	relative viability (0.01372 µM)	relative viability (0.04115 µM)	relative viability (0.1235 µM)	relative viability (0.3704 µM)	relative viability (1.111 µM)	relative viability (3.333 µM)	relative viability (10 µM)
C[C@@H]1COCCN1c1cc(-c2ccnn2C)c2ccnc(-c3ccn[nH]3)c2n1	0.994 ± 0.054	1.01 ± 0.018	1.01 ± 0.014	1.04 ± 0.037	0.953 ± 0.043	0.867 ± 0.013	0.714 ± 0.047	0.452 ± 0.043	0.282 ± 0.012	0.229 ± 0.011	0.197 ± 0.0092
CCN1CCN(Cc2ccc(Nc3ncc(F)c(-c4cc(F)c5nc(C)n(C(C)C)c5c4)n3)nc2)CC1 [Abemaciclib]	1.01 ± 0.08	1.03 ± 0.038	1.01 ± 0.044	1.02 ± 0.046	1.01 ± 0.052	0.95 ± 0.095	0.874 ± 0.037	0.742 ± 0.025	0.678 ± 0.032	0.668 ± 0.018	0.709 ± 0.04
CCc1cc2c(cc1N1CCC(N3CCOCC3)CC1)C(C)(C)c1[nH]c3cc(C#N)ccc3c1C2=O [Alectinib]	1.03 ± 0.043	1.02 ± 0.063	1.05 ± 0.069	1.04 ± 0.036	1.07 ± 0.053	1.06 ± 0.046	1.09 ± 0.062	1.07 ± 0.069	1.09 ± 0.058	1.07 ± 0.076	1.08 ± 0.065
Cc1nc(NC(=O)N2CCC[C@H]2C(N)=O)sc1-c1ccnc(C(C)(C)C(F)(F)F)c1 [Alpelisib]	1.04 ± 0.055	1.04 ± 0.046	1.03 ± 0.052	1 ± 0.062	0.965 ± 0.068	0.938 ± 0.077	0.835 ± 0.039	0.778 ± 0.062	0.698 ± 0.085	0.565 ± 0.035	0.398 ± 0.024
Cn1cc(-c2cc3c(N4CCN(c5ncc([C@@](C)(N)c6ccc(F)cc6)cn5)CC4)ncnn3c2)cn1 [Avapritinib]	0.913 ± 0.047	0.95 ± 0.022	0.965 ± 0.041	0.939 ± 0.026	0.972 ± 0.036	0.941 ± 0.035	0.953 ± 0.032	0.886 ± 0.038	0.846 ± 0.029	0.766 ± 0.038	0.67 ± 0.028
CC(C)NC(=O)C1CCC(n2c(NC(=O)c3ccc(F)cc3)nc3ccc(CN4CCC(C(C)(C)O)CC4)cc32)CC1 (stereo not drawn) [Belizatinib]	1.08 ± 0.04	1.07 ± 0.027	1.04 ± 0.052	1.05 ± 0.033	1.07 ± 0.01	1.05 ± 0.024	1.01 ± 0.019	0.817 ± 0.034	0.5729 ± 0.0013	0.412 ± 0.021	0.274 ± 0.0093
Cn1cnc2c(F)c(Nc3ccc(Br)cc3F)c(C(=O)NOCCO)cc21 [Binimetinib]	1.11 ± 0.046	1.06 ± 0.027	1.02 ± 0.059	1.05 ± 0.041	0.889 ± 0.038	0.724 ± 0.086	0.635 ± 0.041	0.584 ± 0.011	0.589 ± 0.02	0.583 ± 0.037	0.559 ± 0.026
Nc1cc(C(F)(F)F)c(-c2cc(N3CCOCC3)nc(N3CCOCC3)n2)cn1 [Buparlisib]	0.994 ± 0.037	0.96 ± 0.046	0.995 ± 0.031	0.958 ± 0.019	0.964 ± 0.025	0.946 ± 0.055	0.901 ± 0.016	0.765 ± 0.035	0.543 ± 0.021	0.249 ± 0.014	0.158 ± 0.0092
CNC(=O)c1ccc(-c2cnc3ncc(Cc4ccc5ncccc5c4)n3n2)cc1F [Capmatinib]	1.04 ± 0.041	1.03 ± 0.026	1.04 ± 0.048	1.03 ± 0.025	1.05 ± 0.049	1.05 ± 0.022	1.03 ± 0.043	1.06 ± 0.029	0.987 ± 0.024	1.02 ± 0.012	1 ± 0.019
COc1cc2c(Oc3ccc4[nH]c(C)cc4c3F)ncnc2cc1OCCCN1CCCC1 [Cediranib]	1.04 ± 0.024	1.05 ± 0.039	1.06 ± 0.042	1.05 ± 0.016	1.063 ± 0.0043	1.04 ± 0.035	1.06 ± 0.027	1.03 ± 0.032	0.982 ± 0.022	1.05 ± 0.021	1.026 ± 0.002
COc1c(OCCCN2CCOCC2)ccc2c1N=C(NC(=O)c1cnc(N)nc1)N1CCN=C21 [Copanlisib]	1.07 ± 0.03	1.02 ± 0.049	1.02 ± 0.064	0.817 ± 0.059	0.689 ± 0.037	0.599 ± 0.08	0.425 ± 0.033	0.284 ± 0.0047	0.193 ± 0.013	0.16 ± 0.006	0.149 ± 0.015
CN1CCN(c2ccc3nc(-c4c(N)c5c(F)cccc5[nH]c4=O)[nH]c3c2)CC1 [Dovitinib]	1.05 ± 0.054	1.04 ± 0.022	1.06 ± 0.015	1.08 ± 0.018	1.06 ± 0.045	1.05 ± 0.025	0.937 ± 0.097	0.891 ± 0.067	0.604 ± 0.03	0.402 ± 0.023	0.235 ± 0.022
COc1cccc2c1C(=O)c1c(O)c3c(c(O)c1C2=O)C[C@@](O)(C(=O)CO)C[C@@H]3O[C@H]1C[C@H](N)[C@H](O)[C@H](C)O1 [Doxorubicin Hydrochloride]	1.04 ± 0.021	1.05 ± 0.046	1.04 ± 0.031	1.08 ± 0.036	1.06 ± 0.018	0.961 ± 0.024	0.527 ± 0.051	0.203 ± 0.011	0.172 ± 0.014	0.213 ± 0.005	0.175 ± 0.0045
Cc1cnc(Nc2ccc(OCCN3CCCC3)cc2)nc1Nc1cccc(S(=O)(=O)NC(C)(C)C)c1 [Fedratinib]	1.04 ± 0.013	1.06 ± 0.027	1.05 ± 0.034	1.01 ± 0.073	1.04 ± 0.044	1.03 ± 0.075	0.942 ± 0.064	0.699 ± 0.049	0.408 ± 0.024	0.16 ± 0.018	0.00193 ± 0.0011
C=CC(=O)N1CCC[C@@H](n2nc(-c3ccc(Oc4ccccc4)cc3)c3c(N)ncnc32)C1 [Ibrutinib]	1.06 ± 0.016	1.06 ± 0.017	1.06 ± 0.064	1.01 ± 0.022	1.01 ± 0.042	0.976 ± 0.037	0.98 ± 0.081	0.923 ± 0.024	0.9099 ± 0.0036	0.84 ± 0.049	0.583 ± 0.027
CC[C@H](Nc1ncnc2[nH]cnc12)c1nc2cccc(F)c2c(=O)n1-c1ccccc1 [Idelalisib]	1.09 ± 0.073	1.13 ± 0.052	1.1 ± 0.034	1.1 ± 0.046	1.11 ± 0.052	1.08 ± 0.055	1.07 ± 0.066	1.04 ± 0.087	0.945 ± 0.043	0.876 ± 0.051	0.746 ± 0.036
O=C(Cc1ccc(-c2ccc(OCCN3CCOCC3)cc2)cn1)NCc1ccccc1 [KX2-391]	1.06 ± 0.031	1.05 ± 0.037	1.08 ± 0.029	1.03 ± 0.031	1.04 ± 0.034	0.912 ± 0.049	0.504 ± 0.037	0.472 ± 0.029	0.435 ± 0.014	0.443 ± 0.022	0.461 ± 0.028
O=C(Nc1cnn2ccc(N3CCC[C@@H]3c3cc(F)ccc3F)nc12)N1CC[C@H](O)C1 [Larotrectinib]	1.09 ± 0.022	1.12 ± 0.052	1.09 ± 0.072	1.08 ± 0.049	1.05 ± 0.11	0.99 ± 0.076	1.06 ± 0.095	1.06 ± 0.078	1.03 ± 0.065	1.03 ± 0.056	0.986 ± 0.044
